Experimental data from patent US6451568B1, “Cloning of human choline ethanolaminephospho transferases synthesis of phosphatidyl choline phosphatidyle thanolamine and platelet activating factor” (Dalhousie University, priority 1998, dated 2002).
Where “and” joins values, the source holds several entries; their conditions need not be identical. Equal entries are not always repeated. Entries after “also recorded” stand apart in the source; their conditions may differ.

T1: hCEPT1p (Homo sapiens, UniProt Q9Y6K0)
T1 construct: All of the hCEPT1p detected in S. cerevisiae was full length; made in house; host or cells: S. cerevisiae HJ091 (cpt1::LEU2 ept1-), plasmid pAH9, microsomal membranes
T1 sequence (Q9Y6K0 1-416): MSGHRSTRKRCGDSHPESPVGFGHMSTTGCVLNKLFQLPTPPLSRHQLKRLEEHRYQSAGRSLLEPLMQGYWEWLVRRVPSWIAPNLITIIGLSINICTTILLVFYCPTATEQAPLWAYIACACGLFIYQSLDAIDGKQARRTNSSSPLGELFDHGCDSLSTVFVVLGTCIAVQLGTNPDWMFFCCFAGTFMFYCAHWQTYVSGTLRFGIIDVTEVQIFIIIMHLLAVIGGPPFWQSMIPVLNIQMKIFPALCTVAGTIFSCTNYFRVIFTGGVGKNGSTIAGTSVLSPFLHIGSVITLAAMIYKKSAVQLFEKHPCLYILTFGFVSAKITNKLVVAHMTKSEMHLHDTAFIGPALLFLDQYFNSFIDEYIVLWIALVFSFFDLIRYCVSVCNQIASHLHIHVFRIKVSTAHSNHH

T2: hCEPT2 (Homo sapiens, UniProt Q8WUD6)
T2 construct: A full length cDNA was isolated using the Genetrapper™ system technology; expressed in transfected cells; host or cells: HEK293s cells, plasmid pCMVsport-hCEPT2 (clone from the pCMV-Sport human brain cDNA library), microsomal membranes
T2 sequence (Q8WUD6 2-406): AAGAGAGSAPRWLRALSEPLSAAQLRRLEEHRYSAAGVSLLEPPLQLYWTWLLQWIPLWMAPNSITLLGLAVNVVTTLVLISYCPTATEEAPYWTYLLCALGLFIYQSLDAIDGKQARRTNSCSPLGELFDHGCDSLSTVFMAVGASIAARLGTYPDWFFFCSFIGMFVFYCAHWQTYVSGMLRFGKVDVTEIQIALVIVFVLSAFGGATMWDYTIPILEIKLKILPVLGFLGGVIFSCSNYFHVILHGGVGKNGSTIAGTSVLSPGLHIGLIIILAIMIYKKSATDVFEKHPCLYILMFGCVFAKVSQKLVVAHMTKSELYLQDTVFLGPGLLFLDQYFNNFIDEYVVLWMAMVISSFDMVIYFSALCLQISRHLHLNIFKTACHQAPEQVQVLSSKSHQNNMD


How the values were obtained:
[1] = target: T1, hCEPT1p; test: Choline-/ethanolaminephosphotransferase enzyme assay, microsomal membranes of S. cerevisiae HJ091 expressing hCEPT1; assay type: biochemical; conditions: for Enzyme activity, CDP-choline: phosphobase donor CDP-choline; for Enzyme activity, CDP-choline / Enzyme activity, CDP-ethanolamine: diradylglycerol as acceptor substrate, hCEPT1p in S. cerevisiae HJ091 microsomes; for Enzyme activity, CDP-ethanolamine: phosphobase donor CDP-ethanolamine; for Specific activity with CDP-choline (in words): CDP-choline as donor, synthesis of PAF, acyl-PAF, di10:0 PtdCho
Experimental: Diradylglycerols or ceramides were dried under nitrogen gas and resuspended in 0.015% (w/v) Tween 20™ by sonication. […] Assays were incubated at 37° C. for 15 min and activity terminated by the addition of 3 ml CHCl3/ CH3OH (2/1, v/v) followed by 1.5 ml 0.9% (w/v) KCl. Tubes were vortexed and phase separation facilitated by centrifugation at 2000 g for 10 min. The aqueous phase was aspirated and the organic phase was washed twice with 1.5 ml 40% (v/v) CH3OH. An aliquot of the organic phase was dried in a scintillation vial and radioactivity was determined.

[2] = target: T2, hCEPT2; test: Choline-/ethanolaminephosphotransferase activity of microsomes from HEK293s cells overexpressing hCEPT2; assay type: biochemical
Excerpt: A full length cDNA was isolated using the Genetrapper™ system technology (Life Technologies). A primer corresponding to the most 5′ RACE extneded sequence in hand, […] (SEQ ID NO: 11) was biotinylated using terminal deoxynucleotide transferase and hybridized in solution to a single stranded human brain cDNA library that had been generated by digestion of the library with Gene II protein and exonuclease III. Avidin bound to magnetic beads was used to selectively precipitate the biotinylated probe/hybridized cDNA complex, thus enriching the library for cDNAs complementary to the oligonucleotide used. The single stranded cDNAs were extended using Klenow and E. coli were transformed and screened for positive clones with the end labeled antisense oligo, […], found within the original EST 67440. Plasmid DNA from positive colonies was amplified and hCEPT2 specific inserts confirmed and sized by PCR.
Diradylglycerols or ceramides were dried under nitrogen gas and resuspended in 0.015% (w/v) Tween 20™ by sonication. Unless otherwise indicated, assay buffer contained 100 mM Tris-HCl (pH 8.0), 20 mM MgCl2, 1 mM EDTA, 1 mM diradylglycerol or ceramide (final Tween 20 concentration of 0.00375%, w/v), and 10 μg of microsomal protein. […] Assays were incubated at 37° C. for 15 min and activity terminated by the addition of 3 ml CHCl3/ CH3OH (2/1, v/v) followed by 1.5 ml 0.9% (w/v) KCl. Tubes were vortexed and phase separation facilitated by centrifugation at 2000 g for 10 min. The aqueous phase was aspirated and the organic phase was washed twice with 1.5 ml 40% (v/v) CH3OH. An aliquot of the organic phase was dried in a scintillation vial and radioactivity was determined. Samples were routinely analyzed by thin layer chromatography on silica gel plates in a solvent system of CHCl3/CH3OH/NH4OH/H2) (70/30/4/2, v/v) to confirm the synthesis of PtdCho, PtdEtn, and PAF and their analogues.

Molecule | Enzyme activity, CDP-choline [1] | Enzyme activity, CDP-ethanolamine [1] | also measured
O[C@@H](CS)[C@@H](O)CS [DTT] |  |  | Effect of DTT on cholinephosphotransferase activity ([1]; DTT 0-5 mM in assay mix, regardless of the diradylglycerol substrate, data not shown): insensitive; also recorded: did not affect
CCCCCCCC(=O)OC[C@H](CO)OC(=O)CCCCCCC [di8:0] | 54.9 ± 6.4 nmol/min/mg | 3.1 ± 0.4 nmol/min/mg | 
CCCCCCCCCC(=O)OCC(CO)OC(=O)CCCCCCCCC (stereo not drawn) [di10:0] | 172.5 ± 9.8 nmol/min/mg | 3.7 ± 0.4 nmol/min/mg | Specific activity with CDP-choline (in words) [1]: highest specific activities
CCCCCCCCCCCCCCCC(=O)OC[C@H](CO)OC(=O)CCCCCCCCCCCCCCC [di16:0] | 4.3 ± 0.2 nmol/min/mg | 3.5 ± 0.2 nmol/min/mg | 
CCCCCCCCCCCCCCCCOCC(CO)OC(C)=O (stereo not drawn) [1-O-16:0/2:0] | 106.0 ± 5.6 nmol/min/mg |  | Specific activity with CDP-choline (in words) ([1]; listed as 1O-16:0/2:0): highest specific activities; Specific activity with CDP-choline (in words) ([1]; listed as 16:0/2:0): High activities
CCCCCCCCCCCCCC(=O)OC[C@H](CO)OC(=O)CCCCCCCCCCCCC [di14:0] | 6.7 ± 0.2 nmol/min/mg | 3.7 ± 0.1 nmol/min/mg | 
NCCOP(=O)(O)OP(=O)(O)OC[C@H]1O[C@@H](n2ccc(N)nc2=O)[C@H](O)[C@@H]1O [CDP-ethanolamine] |  |  | Vmax(app) ([1]; di18:1 as the diradylglycerol substrate): 12.8 nmol/min/mg; Km ([1]; di18:1 as the diradylglycerol substrate, read-out: Km(app)): 109 µM
CCCCCCCCCCCC(=O)OCC(CO)OC(=O)CCCCCCCCCCC (stereo not drawn) [di12:0] | 27.2 ± 6.9 nmol/min/mg | 2.7 ± 0.3 nmol/min/mg | 
hCEPT2: human choline/ethanolaminephosphotransferase 2, SEQ ID NO:4 (protein) MAAGAGAGSAPRWLRALSEPLSAAQLRRLEEHRYSAAGVSLLEPPLQLYWTWLLQWIPLWMAPNSITLLGLAVNVVTTLVLISYCPTATEEAPYWTYLLCALGLFIYQSLDAIDGKQARRTNSCSPLGELFDHGCDSLSTVFMAVGASIAARLGTYPDWFFSCSFIGMFVFYCAHWQTYVSGMLRFGKVDVTEIQIALVIVFVLSAFGGATMWDYTIPILEIKLKILPVLGFLGGVIFSCSNYFHVILHGGVGKNGSTIAGTSVLSPGLHIGLIIILAIMIYKKSATDVFEKHPCLYILMFGCVFAKVSQKLVVAHMTKSELYLQDTVFLGPGLLFLDQYFNNFIDEYVVLWMAMVISSFDMVIYFSALCLQISRHLHLNIFKTACHQAPEQVQVLSSKSHQNNMD |  |  | Cholinephosphotransferase activity, mean ([2]; CDP-AA choline, mean of duplicates): 10.673 nmol/min/mg; Cholinephosphotransferase activity ([2]; CDP-AA choline, single determinations): 10.638 nmol/min/mg and 10.708 nmol/min/mg; Ethanolaminephosphotransferase activity, mean ([2]; CDP-AA ethanolamine, mean of duplicates): 2.427 nmol/min/mg; Ethanolaminephosphotransferase activity ([2]; CDP-AA ethanolamine, single determinations): 2.169 nmol/min/mg and 2.685 nmol/min/mg
